Source: patent US6995272B2, “Crystal form of N-(4-trifluoromethylphenyl)-5-methylisoxazole-4-carboxamide” (Sanofi-Aventis Deutschland GmbH, priority 1997, dated 2006)
Converted amounts (≈) assume the structure as drawn.

What was measured:
[1] = Solubility in water; format: physicochemical; conditions: for Solubility in water, result: water at 37° C., sampling 5 hours, UV detection
Description: Solubility in Water [table]

[2] = Stability of the first crystal modification on storage (X-ray diffraction pattern); format: physicochemical
Description: Stability of the First Crystal Modification Samples of The first crystal modification were prepared as in Example 1 and were stored at various temperatures at atmospheric humidity. After the stated times, samples were taken and an X-ray diffraction pattern was prepared as in Example 1. […] For preparing the calibration curve for the quantitative determination, the reflection at 2θ=8.35° was used for phase 1 and the reflection at 2θ=16.1° was used for phase 2. The ratios of the corresponding peak heights were calculated and were correlated with the contents of phase 2. The limit of the method is 0.3%. The sample after storage for 1 month at 60° C. contains about 76% of the second crystal modification according to this method.

[3] = tested on: humans who suffer from rheumatic arthritis; experiment: Efficacy in humans who suffer from rheumatic arthritis; format: in vivo; conditions: drug comprising an effective content
[4] = Stability of the first crystal modification on storage (X-ray diffraction pattern); format: physicochemical; conditions: +40° C./75% relative humidity

solubility ([1]; water, 37 °C, water, thermodynamic from solid, water, 37° C., read-out: water solubility (amount that can be dissolved)) [µg/mL]	Crystal modification ([2]; 1 month, +25° C.)	Crystal modification ([2]; 1 month, +40° C.)	Crystal modification ([2]; 1 month, −15° C.)	Crystal modification ([2]; 3 months, +25° C.)	Crystal modification ([2]; 3 months, +40° C.)	Crystal modification ([2]; 3 months, +60° C.)	Crystal modification ([2]; 3 months, −15° C.)	Crystal modification ([2]; 6 months, +25° C.)	Crystal modification ([2]; 6 months, +40° C.)	Crystal modification ([2]; 6 months, −15° C.)	stability (not converted into the second crystal modification) ([2]; temperature range from −15° C. to +40° C.)	Crystal modification ([4]; 1 month)	Crystal modification ([4]; 3 months)	Crystal modification ([4]; 6 months)	water solubility (amount that can be dissolved) ([1]; water, 37° C.) [µg/mL]	SMILES	Solubility in water, result [1]	efficacy in comparison with a drug comprising the second crystal modification [3]
38 (≈ 141 µM)	First	First	First	First	First	Second	First	First	First	First	stable	First	First	First	–	Cc1oncc1C(=O)Nc1ccc(C(F)(F)F)cc1 [first crystal modification, N-(4-trifluoromethylphenyl)-5-methylisoxazole-4-carboxamide]	38 mg dissolved in 1 liter of water at 37 °C	same efficacy
–	–	–	–	–	–	–	–	–	–	–	–	–	–	–	25 (≈ 92.5 µM)	Cc1oncc1C(=O)Nc1ccc(C(F)(F)F)cc1 [second crystal modification, N-(4-trifluoromethylphenyl)-5-methylisoxazole-4-carboxamide]	25 mg dissolved in 1 liter of water at 37 °C	–
